Experiment: mn = molality of the nth substance listed, in mol/kg
Conditions: 87 kPa, Liquid, Vibrating tube method

CCn1cc[n+](C)c1.O=S(=O)([O-])O [1-ethyl-3-methylimidazolium hydrogen sulfate] + O
mass density [kg/m3]
Conditions	293.15 K	298.15 K	303.15 K	308.15 K	313.15 K
m1 = 0.05	1001.85	1000.62	999.15	997.45	995.6
m1 = 0.1	1005.19	1003.89	1002.36	1000.61	998.69
m1 = 0.15	1008.26	1006.91	1005.32	1003.53	1001.51

NCC(=O)O [2-aminoacetic acid] + O
mass density [kg/m3]
Conditions	m1 = 0.0547	m1 = 0.1057	m1 = 0.1546	m1 = 0.2061	m1 = 0.2531	m1 = 0.3046	m1 = 0.3538	m1 = 0.403	m1 = 0.452	m1 = 0.499
293.15 K	999.97	1001.59	1003.13	1004.74	1006.2	1007.78	1009.28	1010.77	1012.24	1013.64
298.15 K	998.8	1000.41	1001.94	1003.54	1004.99	1006.56	1008.06	1009.54	1011	1012.39
303.15 K	997.39	998.99	1000.51	1002.1	1003.53	1005.09	1006.57	1008.04	1009.48	1010.86
308.15 K	995.77	997.36	–	1000.45	1001.88	1003.42	1004.89	1006.35	1007.78	1009.14
313.15 K	993.92	995.5	997	–	999.99	1001.53	1002.98	1004.43	1005.86	1007.22

N[C@@H](CO)C(=O)O [L-serine] + O
mass density [kg/m3]
Conditions	m1 = 0.0529	m1 = 0.1005	m1 = 0.1529	m1 = 0.2024	m1 = 0.2541	m1 = 0.3019	m1 = 0.3525	m1 = 0.4023	m1 = 0.4535	m1 = 0.5008
293.15 K	1000.59	1002.7	1005	1007.15	1009.38	1011.42	1013.56	1015.65	1017.77	1019.72
298.15 K	999.41	1001.5	1003.78	1005.92	1008.13	1010.15	1012.27	1014.34	1016.44	1018.37
303.15 K	997.99	1000.06	1002.33	1004.45	1006.64	1008.65	1010.76	1012.81	1014.9	1016.82
308.15 K	996.36	998.42	1000.67	1002.77	1004.94	1006.94	1009.04	1011.08	1013.16	1015.07
313.15 K	994.5	996.54	998.77	1000.85	1003.01	1004.99	1007.07	1009.11	1011.18	1013.07
